For assay [1], the system named is NG 49226 (QC strain). Description: Optical scatter phenotypic AST on the instrument, NG 49226. It is filed as cell-based, Neisseria gonorrhoeae. The note with it: read-out: Our MIC based on the curves. The text has this: (§1) In one embodiment, the application of the system disclosed herein is to conduct phenotypic antimicrobial susceptibility testing on Neisseria gonorrhoeae (NG). NG is a fastidious organism and a difficult organism to culture in liquid nutrient broth. The instant invention uses a proprietary media designed for the broth culture of NG. Using specific antibiotics, each at multiple concentrations in each well within the cassette and allowing bacteria to culture in the presence of antibiotic, one can determine the phenotypic AST results. Data generated and illustrated in the figures was generated from samples ranging from single wells or a plurality of wells within one or more cassettes.
(§2) In one embodiment, the application of the system is to conduct phenotypic antimicrobial susceptibility testing on NG. […]
(§3) The workflow involves use of a sample preparation kit (if and as needed) to process the sample to be tested (based on the sample type). […] The cassette is then loaded into one of the open bays/readers within the instrument. The reader also has an RFID scanner to record the cassette location i.e., the bay/reader it is inserted into within the instrument. The cassette is then autonomously incubated within the instrument, during which all wells within the cassette are read independently by the reader at regular specified time intervals, until the test is complete. […]

Another assay concerns AR Isolate AR 0817. Description: Optical scatter phenotypic AST on the instrument, AR Isolate AR 0817. The note with it: Neisseria gonorrhoeae, FIG. 27, read-out: Our MIC from the instrument. Type of assay: cell-based.
Text: as §1, §2, §3

Assay [2] has as its system NG AR 0165 (Neisseria gonorrhoeae antibiotic resistant isolate 0165). The note with it: FIG. 22; cited from earlier work.
In assay [3] the test system is E coli 25922 (QC strain). The conditions noted are these: FIG. 25; cited from earlier work.
In assay [4] the test system is NG 49226 (QC strain). The conditions noted are these: FIG. 24; cited from earlier work.
In assay [5] the test system is E coli 25922 (QC strain). Description: Optical scatter phenotypic AST on the instrument, E coli 25922. It is filed as cell-based. The conditions noted are these: normalized reading, 650 nm, FIG. 25, read-out: Our MIC based on the curves. The source says: (§4) In one embodiment, the application of the system is to conduct phenotypic antimicrobial susceptibility testing on gram positive and gram negative organisms from isolates or directly from a positive blood sample. In this embodiment, our method deploys a series of tightly controlled environmental factors, such as temperature, humidity, CO2, along with the use of Mueller-Hinton-II defined media allowing for the testing of these organisms as specified by CLSI. Using specific antibiotics, at various ranges, antibiotic classes, concentrations across the wells of the cassette and allowing bacteria to culture in the presence of antibiotic, one can determine the phenotypic AST results.
(§5) The workflow involves use of a sample preparation kit (if and as needed) to process the sample to be tested (based on the sample type). […] The cassette is then loaded into one of the open bays/readers within the instrument. The reader also has an RFID scanner to record the cassette location i.e., the bay/reader it is inserted into within the instrument. The cassette is then autonomously incubated within the instrument, during which all wells within the cassette are read independently by the reader at regular specified time intervals, until the test is complete. […] Based on the statistical analysis, if the signal change was determined as significant for a given well that well is considered to have detected the analyte. […]

The subject of assay [6] is NG AR 0165 (Neisseria gonorrhoeae antibiotic resistant isolate 0165). Description: Optical scatter phenotypic AST on the instrument, NG AR 0165. Type of assay: cell-based. The note with it: normalized reading, 650 nm, FIG. 22, read-out: Our MIC based on the curves.
Text: as §1, §2, §3

Another assay has as its system K pneumoniae 700603. Description: Optical scatter phenotypic AST on the instrument, K pneumoniae 700603. It is filed as cell-based. The note with it: K pneumoniae 700603 in CAMHB with blood (to mimic a positive blood culture vial); FIG. 30; read-out: Our MIC based on the curves.
Text: as §4, §5

Assay [7] relates to Staphylococcus aureus in diluted positive blood culture sample. Description: In-house broth microdilution test (expected MIC), Staphylococcus aureus. Type of assay: cell-based. The note with it: clinical positive blood culture sample, FIG. 34, read-out: expected MIC value (based on in-house broth microdilution test). The protocol:
(§6) BMD refers to liquid suspension of an isolated culture in the presence of varying types and concentrations of antibiotics. The liquid cultures are incubated for a period of time at which the turbidity or cloudiness of the suspension is measured either visually, optically or using other detection means. The turbidity is caused by bacteria multiplying and/or a “growing” culture (resistant), whereas a susceptible culture or isolate would appear as clear or lacking turbidity. Use of a reading device permits this process to be semi-automated.
In general terms: In broth dilution the organism is exposed to a series of concentrations in liquid medium.

Assay [8] has the same test system. Description: Direct-from-positive blood culture AST on the instrument, Staphylococcus aureus. The conditions noted are these: diluted positive blood culture sample from the clinical lab, FIG. 34, read-out: Our MIC based on the curves. Type of assay: cell-based.
Text: (§7) In one embodiment, the application of the system is to conduct phenotypic antimicrobial susceptibility testing on gram positive and gram-negative organisms from a positive blood sample without plating for an isolate. In this embodiment, the positive blood sample is adjusted to the desired microbial concentration. In this embodiment our method deploys a series of tightly controlled environmental factors, such as temperature, humidity, CO2, along with the use of Mueller-Hinton-II defined media allowing for the testing of these organisms as specified by CLSI. […]
as §3, with “complete. The test completion is determined either by the prespecified time period for the cassette to be run, or until the software algorithm running the data analysis in real-time determines the necessary change to the call to complete the test.” for “complete.”

Assay [9] deals with NG AR 0179 (Neisseria gonorrhoeae antibiotic resistant isolate 0179). Description: Optical scatter phenotypic AST on the instrument, NG AR 0179. Type of assay: cell-based. The note with it: normalized reading, 650 nm, FIG. 23, read-out: Our MIC based on the curves.
Text: as §1, §2, §3

For assay [10], the system named is S aureus 29213 (QC strain). Description: Optical scatter phenotypic AST on the instrument, S aureus 29213. It is filed as cell-based. The conditions noted are these: S aureus 29213 (QC strain) in cation adjusted Mueller Hinton Broth (CAMHB); FIG. 28; read-out: Our MIC based on the curves.
Text: as §4, §5

Assay [11] has as its system E faecalis 29212 (QC strain). Description: Optical scatter phenotypic AST on the instrument, E faecalis 29212. It is filed as cell-based. The conditions noted are these: E faecalis 29212 (QC strain) in CAMHB with blood (to mimic a positive blood culture vial); FIG. 29; read-out: Our MIC based on the curves.
Text: as §4, §5

The subject of assay [12] is E faecalis 29212 (QC strain). The note with it: FIG. 29; cited from earlier work.
For assay [13], the system named is Serratia marcescens in diluted positive blood culture sample. Description: Direct-from-positive blood culture AST on the instrument, Serratia marcescens. Type of assay: cell-based. The conditions noted are these: diluted positive blood culture sample from the clinical lab, FIG. 33, read-out: Our MIC based on the curves.
Text: as §7
as §3, with “complete. The test completion is determined either by the prespecified time period for the cassette to be run, or until the software algorithm running the data analysis in real-time determines the necessary change to the call to complete the test.” for “complete.”

Assay [14] has the same test system. Description: In-house broth microdilution test (expected MIC), Serratia marcescens. The conditions noted are these: clinical positive blood culture sample, FIG. 33, read-out: expected MIC value (based on in-house broth microdilution test). Type of assay: cell-based. The method, then:
as §6

In brackets after ≈: the same amount, converted by molar mass. Like-named read-outs stand apart in the source and are kept apart here.

As a reminder, the MIC is the least concentration at which growth counts as inhibited. In the case of `C=CC1=C(C(=O)O)N2C(=O)[C@@H](NC(=O)/C(=N\OCC(=O)O)c3csc(N)n3)[C@H]2SC1` [Cefixime], the MIC in the assay on NG 49226 (QC strain) [1] (Neisseria gonorrhoeae 49226 (QC strain), 5-well cassette system, FIG. 26) was determined as 0.008 µg/mL (≈ 0.0176 µM); with AR Isolate AR 0817, 0.125 µg/mL (≈ 0.276 µM).
As to `O=C(O)c1cn(C2CC2)c2cc(N3CCNCC3)c(F)cc2c1=O` [Ciprofloxacin], the MIC in the assay on NG 49226 (QC strain) [1] (Neisseria gonorrhoeae, NG 49226 (QC strain), normalized reading, 650 nm, FIG. 24) was 0.002 µg/mL (≈ 0.00604 µM); in the assay on E coli 25922 (QC strain) [5], 0.008 µg/mL (≈ 0.0241 µM); in [6] it was 4 µg/mL (≈ 12.1 µM). The “expected MIC value (per CDC agar dilution testing)” value in [2] is 8 µg/mL. Also, the “expected MIC value range (BMD method)” value with E coli 25922 (QC strain) [3] is 0.004 to 0.016 µg/mL. Also, in the assay with NG 49226 (QC strain) [4], the “expected MIC value range (per CDC agar dilution testing)” value was 0.001 to 0.008 µg/mL.
Turning to `C[C@@H](O)[C@H]1C(=O)N2C(C(=O)O)=C(SCCN=CN)C[C@H]12` [Imipenem], the minimum inhibitory concentration (MIC) in the assay with K pneumoniae 700603 was found to be 0.5 µg/mL (≈ 1.67 µM).
`Cc1onc(-c2ccccc2)c1C(=O)N[C@@H]1C(=O)N2[C@@H]1SC(C)(C)[C@@H]2C(=O)O` [Oxacillin]: the MIC in assay [7] and in assay [8] was above 2 µg/mL each time.
For `CN(C)[C@@H]1C(O)=C(C(N)=O)C(=O)[C@@]2(O)C(O)=C3C(=O)c4c(O)cccc4[C@@](C)(O)[C@H]3C[C@@H]12` [Tetracycline], the values for the minimum inhibitory concentration (MIC) in assay [9] and in assay [10] were 2 µg/mL (≈ 4.5 µM) and 0.008 µg/mL (≈ 0.018 µM), respectively.
For the molecule `CN[C@H](CC(C)C)C(=O)N[C@H]1C(=O)N[C@@H](CC(N)=O)C(=O)N[C@H]2C(=O)N[C@H]3C(=O)N[C@H](C(=O)N[C@H](C(=O)O)c4cc(O)cc(O)c4-c4cc3ccc4O)[C@H](O)c3ccc(c(Cl)c3)Oc3cc2cc(c3O[C@@H]2O[C@H](CO)[C@@H](O)[C@H](O)[C@H]2O[C@H]2C[C@](C)(N)[C@H](O)[C@H](C)O2)Oc2ccc(cc2Cl)[C@H]1O` [Vancomycin], the MIC in assay [11] amounted to 4 µg/mL (≈ 2.76 µM). Moreover, in assay [12], the “expected MIC value” is 1 to 4 µg/mL.
On to `CC1(C)S[C@@H]2[C@H](NC(=O)[C@H](N)c3ccccc3)C(=O)N2[C@H]1C(=O)O` [ampicillin], for which the MIC in assay [13] is 16 µg/mL (≈ 45.8 µM); in [14], above 16 µg/mL.

Values taken from patent publication US20240247224A1, “SYSTEM AND METHOD FOR RAPID SUSCEPTIBILITY TESTING” (priority 2023, published 2024).
